From patent US20060293351A1, “Promotion of wound healing” (priority 1999, published 2006)

Assays:
[1] = tested on: incision at tumor implantation site; assay: Wound healing in nude mice implanted with C6 rat glioma tumors; type: in vivo, CD1-nude mice
Method: Tumors from C6 rat glioma cells were prepared and implanted in nude mice. Certain mice received Halofuginone, either orally or through i.p. (intra-peritoneal) administration. […] The experimental method was as follows. C6 rat glioma cells were cultured in DMEM supplemented with 5% FCS, 50 units/ml penicillin, 50 micrograms/ml streptomycin and 125 […]. Aggregation of cells into small spheroids of about 150 microns was initiated by replating cells from confluent cultures onto agar-coated bacteriological plates. After 4-5 days in culture, the suspension was transferred to a 250 ml spinner flask (Bellco, USA), and the medium was changed every other da for 30-40 days. All culture operations were performed at 37° C. and 5% CO2. Other conditions were as previously reported (Abramovitch et al., Br. J. Cancer, 77:440-447, 1998; Abramovitch et al., Cancer Res., 55:1956-62, 1995). For the implantation of the cells, male CD1-nude mice, two months old and 30 g body weight, were anesthetized. A single tumor, about 1 mm in diameter, was implanted in each mouse stubcutaneously in the lower back at the site of a 4 mm incision, using a Teflon tubing, as reposed previously (Abramovitch et al., Br. J. Cancer, 77:440-447, 1998). The incision was formed with fine surgical scissors and closed with an adhesive bandage. The mice were then divided into six groups. One group received Halofuginone by oral administration as previously described. Four groups received different concentrations of Halofuginone through i.p. injections every other day (0.1, 0.5, 2 and 4 micrograms of Halofuginone per injection). One group received sham injections (no Halofuginone). MRI microimaging of the implanted tumor was performed on a horizontal 4.7 T Bruker-Biospec spectrometer using an actively RF decoupled surface coil, 2 cm in diameter, and a bird-cage transmission coil, as reported previously (Abramovitch et al., Br. J. Cancer, 77:440-447, 1998; and Abramovitch et al., Magn. Reson. Med., 39:813-824, 1998). Mice were anesthetized and placed supine with the tumor located at the center of the surface coil. Gradient echo images were acquired with a slice thickness of 0.5 mm, TE of 10 ms, TR of 230 ms and 256×256 pixels matrix resulting in in-plane resolution of 110 microns. Growth of the capillary bed was reflected by reduction of the mean intensity at a region of interest of 1 mm surrounding the tumor (Abramovitch et al., Br. J. Cancer, 77:440-447, 1998; and Abramovitch et al., Magn. Reson. Med., 39:813-824, 1998). At the end of the experimental period, the mice were sacrificed, and sections were obtained and prepared as previously described above. […] Such a result is surprising since wounds located less than 1 mm from a tumor implantation site have been previously shown not to heal rapidly.

[2] = tested on: T50 bladder carcinoma bearing mice; assay: Wound healing in mice implanted with T50 bladder carcinoma tumors; type: in vivo, C3H mice; conditions: diet containing 10 mg/kg or 5 mg/kg, 3 days prior to and 2 weeks after cell injection
Method: Similar visual results were obtained with mice implanted with T50 bladder carcinoma tumors (FIG. 4). C3H mice were divided into two groups of 6 mice each. The experimental group received a diet containing either 10 mg/kg or 5 mg/kg of Halofuginone 3 days prior to the injection of T50 bladder carcinoma cells and during 2 weeks after. […] The right side received 0.4*10^5 cells, and the left side received 2*10^5 cells. The experiment ended at day 17. FIG. 4 is a photograph of representative bladder carcinoma bearing mice which were untreated (top) or treated (bottom) with Halofuginone. […] Halofuginone was clearly able to promote wound healing in mice implanted with bladder carcinoma tumors.

collagen α1(I) gene = assay: Northern blot of collagen α1(I) gene in urethral fibroblasts; type: cell-based, rat; conditions: Northern blot analysis
Method: Next, total RNA was isolated using the guanidinium-thiocyanate-phenol technique (Chomczynski, P. and N. Sacchi, Anal. Biochem., 162:156, 1987). RNA was subjected to 1% agarose denaturing gel electrophoresis, followed by blotting onto a nylon filter (GeneScreen Plus, New England Nuclear, Boston, Mass., USA). The probe for the collagen α1(I) gene was labeled using the random primer procedure with a commercial kit (Boehringer, Germany). Hybridization was performed overnight at 40° C. in a solution containing 10% dextran sulfate, 1% SDS, 1 M NaCl, 40% formamide and […] denatured herring sperm DNA. Hybridization was followed by two 30-minute washes in 2×SSC (1×SSC contains 0.15 M NaCl and 0.015 M sodium citrate), 1% SDS, and two 20 minute washes in 1×SSC, 0.1% SDS. The filters were exposed to X-ray film (Agfa-Curix) at −70° C., using intensifying screens.

[3] = orally or 4 micrograms per i.p. injection
[4] = particularly at the highest dose (4 micrograms per i.p. injection)

O=C(CC1NCCC[C@H]1O)Cn1cnc2cc(Br)c(Cl)cc2c1=O (stereo partly drawn) [Halofuginone]
complete re-epitheliazation (mice per group) ([1]; 4 micrograms per i.p. injection every other day): 4 out of 5
complete re-epitheliazation (mice per group) ([1]; administered orally): 4 out of 5
re-epitheliazation (mice per group) ([1]; all other groups (0.1, 0.5, 2 micrograms per i.p. injection; sham)): 1 out of 5
scarring at the site of the wound [1, 3]: no scarring
wound healing despite presence of tumor [1, 3]: significantly improved wound healing
collagen content [1, 4]: decreased
expression of the collagen α1(I) gene [1, 4]: decreased
wound healing [2]: greater wound healing
expression of the collagen α1(I) gene (collagen α1(I) gene): specifically decreased the expression
